Data on 17 molecules can be found in patent US12577206B2 (BRISTOL-MYERS SQUIBB COMPANY, priority 2020, dated 2026).

The target in one assay is T1, human FPR2 (Homo sapiens, UniProt P25090).
T1 sequence (P25090 1-351): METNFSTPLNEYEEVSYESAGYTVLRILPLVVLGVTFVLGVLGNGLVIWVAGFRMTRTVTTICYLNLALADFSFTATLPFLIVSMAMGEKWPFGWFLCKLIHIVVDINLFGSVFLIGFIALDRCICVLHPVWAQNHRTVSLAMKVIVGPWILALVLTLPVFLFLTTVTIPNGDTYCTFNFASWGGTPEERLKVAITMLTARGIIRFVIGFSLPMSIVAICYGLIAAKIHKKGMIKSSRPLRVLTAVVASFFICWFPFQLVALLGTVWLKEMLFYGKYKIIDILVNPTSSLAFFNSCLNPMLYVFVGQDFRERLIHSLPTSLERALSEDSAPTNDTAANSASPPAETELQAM
As to the kind of experiment: FPR2 cyclic adenosine monophosphate (cAMP) assay. The assay is classed as cell-based. Particulars: CHO cells overexpressing human FPR2; forskolin 5 μM; inhibition of cAMP production; HTRF; read-out: hFPR2 cAMP2 EC50. In short, it runs like this:
(§1)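 CHO/hFPR1 4,000 cells/well, forskolin 10 μM final; CHO/hFPR2 2,000 cells/well, forskolin 5 μM final. IBMX 200 μM, DMSO 1%, DPBS + Ca/Mg + 0.1% BSA, 30 min rt. HTRF cAMP; 4-PL fit.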

The target in a further assay is T2, human FPR1 (Homo sapiens, UniProt P21462).
T2 sequence (P21462 1-350): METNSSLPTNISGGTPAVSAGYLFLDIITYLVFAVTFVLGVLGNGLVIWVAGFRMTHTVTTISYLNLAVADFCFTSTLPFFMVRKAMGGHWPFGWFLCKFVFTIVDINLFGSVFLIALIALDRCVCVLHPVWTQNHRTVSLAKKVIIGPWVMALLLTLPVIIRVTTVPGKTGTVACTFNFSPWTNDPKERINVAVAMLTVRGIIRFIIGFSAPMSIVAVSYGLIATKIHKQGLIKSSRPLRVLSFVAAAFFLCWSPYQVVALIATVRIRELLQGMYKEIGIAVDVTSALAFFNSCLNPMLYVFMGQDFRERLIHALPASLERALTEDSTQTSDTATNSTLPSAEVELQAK
Nature of the assay: FPR1 cyclic adenosine monophosphate (cAMP) assay. The assay is classed as cell-based. Particulars: CHO cells overexpressing human FPR1; forskolin 10 μM; inhibition of cAMP production; HTRF; read-out: hFPR1 cAMP2 EC50. In short, it runs like this: as §1
In general terms: Cyclic AMP is a second messenger, typically raised through Gs and lowered through Gi signalling.

As a reminder, the EC50 is the concentration at which the effect is half-maximal. Take `COc1cc(F)c(-c2c(NC(=O)c3ccc(OC(F)F)cc3)c(=O)n(-c3cccc(N4CCN(C)CC4)n3)n2C)c(F)c1` [Example 83, N-[5-(2,6-difluoro-4-methoxyphenyl)-1-methyl-2-[6-(4-methylpiperazin-1-yl)pyridin-2-yl]-3-oxo-2,3-dihydro-1H-pyrazol-4-yl]-4-(difluoromethoxy)benzamide]: the EC50 at human FPR2 is 2 nM; on human FPR1 it was greater than 10000 nM.

On to `COc1cc(F)c(-c2c(NC(=O)c3ccc(OC(F)F)cc3)c(=O)n(-c3cccc(NC(=O)C(C)(C)C)n3)n2C)c(F)c1` [Example 84, N-[5-(2,6-difluoro-4-methoxyphenyl)-2-[6-(2,2-dimethylpropanamido)pyridin-2-yl]-1-methyl-3-oxo-2,3-dihydro-1H-pyrazol-4-yl]-4-(difluoromethoxy)benzamide], for which the EC50 came to 5 nM at human FPR2 and 82 nM on human FPR1.

For the molecule `COc1cc(F)c(-c2c(NC(=O)c3ccc(OC(F)F)cc3)c(=O)n(-c3cccc(C(C)(C)O)n3)n2C)c(F)c1` [Example 85], the results for the EC50 at human FPR2 and at human FPR1 were 5 nM and 750 nM, respectively.

Take `COc1cc(F)c(-c2c(NC(=O)c3ccc(OC(F)F)cc3)c(=O)n(-c3cccc(C(C)O)n3)n2C)c(F)c1` (stereo not shown) [Example 86, N-[5-(2,6-difluoro-4-methoxyphenyl)-2-[6-(1-hydroxyethyl)pyridin-2-yl]-1-methyl-3-oxo-2,3-dihydro-1H-pyrazol-4-yl]-4-(difluoromethoxy)benzamide]: the values for the EC50 on human FPR2 and on human FPR1 were 10 nM and 1400 nM, respectively.

For `COc1cc(F)c(-c2c(NC(=O)c3ccc(OC(F)F)cc3)c(=O)n(-c3cccc(C4(O)CCC4)n3)n2C)c(F)c1` [Example 87, N-(5-(2,6-difluoro-4-methoxyphenyl)-2-(6-(1-hydroxycyclobutyl)pyridin-2-yl)-1-methyl-3-oxo-2,3-dihydro-1H-pyrazol-4-yl)-4-(difluoromethoxy)benzamide], the figures for the EC50 on human FPR2 and at human FPR1 were 4 nM and 780 nM, respectively.

For the molecule `COc1cc(C2CC2)nc(-n2c(=O)c(NC(=O)c3ccc(OC(F)F)cc3)c(-c3c(F)cc(OC)cc3F)n2C)c1` [Example 88, N-(2-(6-cyclopropyl-4-methoxypyridin-2-yl)-5-(2,6-difluoro-4-methoxyphenyl)-1-methyl-3-oxo-2,3-dihydro-1H-pyrazol-4-yl)-4-(difluoromethoxy)benzamide], the EC50 at human FPR2 worked out at 2 nM; on human FPR1, 6300 nM.

Regarding `COc1cc(-n2c(=O)c(NC(=O)c3ccc(OC(F)F)cc3)c(-c3c(F)cc(OC)cc3F)n2C)nc(C(C)(C)O)c1` [Example 89, N-[5-(2,6-difluoro-4-methoxyphenyl)-2-[6-(2-hydroxypropan-2-yl)-4-methoxypyridin-2-yl]-1-methyl-3-oxo-2,3-dihydro-1H-pyrazol-4-yl]-4-(difluoromethoxy)benzamide], the EC50 was 3 nM on human FPR2 and 900 nM at human FPR1.

With `COc1cc(N2C[C@@H](C)O[C@@H](C)C2)nc(-n2c(=O)c(NC(=O)c3ccc(OC(F)F)cc3)c(-c3c(F)cc(OC)cc3F)n2C)c1` [Example 92, N-[5-(2,6-difluoro-4-methoxyphenyl)-2-{6-[(2R,6S)-2,6-dimethylmorpholin-4-yl]-4-methoxypyridin-2-yl}-1-methyl-3-oxo-2,3-dihydro-1H-pyrazol-4-yl]-4-(difluoromethoxy)benzamide], the results for the EC50 on human FPR2 and at human FPR1 were 16 nM and 2100 nM, respectively.

With `COc1cc(N2C[C@@H](C)N(C)[C@@H](C)C2)nc(-n2c(=O)c(NC(=O)c3ccc(OC(F)F)cc3)c(-c3c(F)cc(OC)cc3F)n2C)c1` [Example 93, N-[5-(2,6-difluoro-4-methoxyphenyl)-2-{4-methoxy-6-[(3R,5S)-3,4,5-trimethylpiperazin-1-yl]pyridin-2-yl}-1-methyl-3-oxo-2,3-dihydro-1H-pyrazol-4-yl]-4-(difluoromethoxy)benzamide], the results for the EC50 at human FPR2 and on human FPR1 were 2 nM and 1800 nM, respectively.

In the case of `COc1cc(N2CC[C@H](O)C2)nc(-n2c(=O)c(NC(=O)c3ccc(OC(F)F)cc3)c(-c3c(F)cc(OC)cc3F)n2C)c1` [Example 97, N-[5-(2,6-difluoro-4-methoxyphenyl)-2-{6-[(3S)-3-hydroxypyrrolidin-1-yl]-4-methoxypyridin-2-yl}-1-methyl-3-oxo-2,3-dihydro-1H-pyrazol-4-yl]-4-(difluoromethoxy)benzamide], the EC50 at human FPR2 turned out to be 3 nM; on human FPR1, 3400 nM.

As to `COc1cc(-n2c(=O)c(NC(=O)c3ccc(OC(F)F)cc3)c(-c3c(F)cc(OC)cc3F)n2C)nc(C2(O)CCC2)c1` [Example 100, N-[5-(2,6-difluoro-4-methoxyphenyl)-2-[6-(1-hydroxycyclobutyl)-4-methoxypyridin-2-yl]-1-methyl-3-oxo-2,3-dihydro-1H-pyrazol-4-yl]-4-(difluoromethoxy)benzamide], the EC50 on human FPR2 is 2 nM; at human FPR1, 1600 nM.

For the molecule `COc1cc(F)c(-c2c(NC(=O)c3ccc(OC(F)F)cc3)c(=O)n(-c3cccc(N4CC[C@H](O)C4)n3)n2C)c(F)c1` [Example 102, N-[5-(2,6-difluoro-4-methoxyphenyl)-2-{6-[(3S)-3-hydroxypyrrolidin-1-yl]pyridin-2-yl}-1-methyl-3-oxo-2,3-dihydro-1H-pyrazol-4-yl]-4-(difluoromethoxy)benzamide], the figures for the EC50 on human FPR2 and on human FPR1 were 2 nM and 1000 nM, respectively.

For `COc1cc(F)c(-c2c(NC(=O)c3ccc(OC(F)F)cc3)c(=O)n(-c3cccc(N4CC(F)(F)C4)n3)n2C)c(F)c1` [Example 104, N-[5-(2,6-difluoro-4-methoxyphenyl)-2-[6-(3,3-difluoroazetidin-1-yl)pyridin-2-yl]-1-methyl-3-oxo-2,3-dihydro-1H-pyrazol-4-yl]-4-(difluoromethoxy)benzamide], the EC50 at human FPR2 is 3 nM; on human FPR1 it was 6200 nM.

On to `COc1cc(F)c(-c2c(NC(=O)c3ccc(OC(F)F)cc3)c(=O)n(-c3cc(C)cc(C)c3)n2C)c(F)c1` [Example 109, N-[5-(2,6-difluoro-4-methoxyphenyl)-2-(3,5-dimethylphenyl)-1-methyl-3-oxo-2,3-dihydro-1H-pyrazol-4-yl]-4-(difluoromethoxy)benzamide], for which the EC50 on human FPR2 came to 11 nM; on human FPR1, 8100 nM.

Regarding `COc1cc(F)c(-c2c(NC(=O)c3ccc(OC(F)F)cc3)c(=O)n(-c3cccc(C#N)c3)n2C)c(F)c1` [Example 110, N-[2-(3-cyanophenyl)-5-(2,6-difluoro-4-methoxyphenyl)-1-methyl-3-oxo-2,3-dihydro-1H-pyrazol-4-yl]-4-(difluoromethoxy)benzamide], the EC50 at human FPR2 is 9 nM; at human FPR1, 37 nM.

For the molecule `COc1cc(F)c(-c2c(NC(=O)c3ccc(OC(F)F)cc3)c(=O)n(-c3cccc(C4CC4)c3)n2C)c(F)c1` [Example 111, N-[2-(3-cyclopropylphenyl)-5-(2,6-difluoro-4-methoxyphenyl)-1-methyl-3-oxo-2,3-dihydro-1H-pyrazol-4-yl]-4-(difluoromethoxy)benzamide], the EC50 at human FPR2 amounted to 4 nM; on human FPR1, 2 nM.

`COc1cccc(-n2c(=O)c(NC(=O)c3ccc(OC(F)F)cc3)c(-c3c(F)cc(OC)cc3F)n2C)c1` [Example 112, N-[5-(2,6-difluoro-4-methoxyphenyl)-2-(3-methoxyphenyl)-1-methyl-3-oxo-2,3-dihydro-1H-pyrazol-4-yl]-4-(difluoromethoxy)benzamide]: the EC50 was 5 nM at human FPR2 and 3 nM at human FPR1.
